Laboratory results taken from patent US12392781B2, “Deuterated indole heptamethine cyanine dyes” (University of Notre Dame du Lac, priority 2021, dated 2025).
Entries after “also recorded” stand apart in the source; their conditions may differ. Each block holds one molecule with its values, some of them ahead of it.

Key:
[1] = Photophysical properties at room temperature (absorption, fluorescence, quantum yield); type: physicochemical; conditions: for λ abs max / λ em max / ε: room temperature; for ε: Beer-Lambert fit 1-5 μM; for ΦF (fluorescence quantum yield): absolute (integrating sphere) for ICG, ICG-d5, ICG-d7, relative to ICG for 1; for Brightness: in M^-1 cm^-1 (unit assumed)
Experimental: Reagents and solvents were purchased from Sigma-Aldrich, VWR, Oakwood, Thermo Fisher and used without further purification unless stated otherwise. Column chromatography was performed using Biotage Sfär C18 Duo columns (part #FSUD-0401). Reverse- phase thin layer chromatography (TLC) experiments were performed on C18 TLC plates with F254s indicator (MilliporeSigma, part #1.15683). ^1H NMR spectra were recorded on a Bruker 500 NMR spectrometer. Chemical shifts are presented in ppm and referenced by residual solvent peak. High-resolution mass spectrometry (HRMS) was performed using a time-of-flight (TOF) analyzer with electrospray ionization (ESI), with sample dilution in water/acetonitrile as the standard produre. Electronic absorption spectra were recorded on an Evolution 201 UV/vis spectrometer with Thermo Insight software. Fluorescence spectra were collected on a Horiba Fluoromax-4 fluorometer with a maximum detection wavelength of 850 nm. Analyte solutions were prepared on the lab bench (exposed to air and light) using in HPLC grade water (Sigma-Aldrich), dimethylsulfoxide (Sigma-Aldrich), pH 7.4 1× phosphate buffered saline (Thermo Fisher) or fetal bovine serum (Sigma-Aldrich). Stock solutions for spectroscopy studies were prepared and used within 2 hours. All absorption and fluorescence spectra were collected using quartz cuvettes (1 mL, 1 cm path length).
Samples were excited at 730 nm with optical density≤0.05. First, photons were recorded with an integrating sphere after the excitation of a blank solvent reference, then the reference was replaced by a sample solution, and the spectrum (720-875 nm) was acquired again. The quantum yield was calculated by the equation below:
[formula] where P is the number of photons, F is the fluorescence intensity and E is the intensity at the excitation wavelength. Experiments were conducted in triplicate, with the reported absolute quantum yields corresponding to the mean value±standard deviation.
The fluorescence spectrum of each solution was obtained with excitation at 720 nm, and the integrated area was used to calculate the quantum yield according to the following equation:
[formula] where η is the refractive index of the solvent, I is the integrated fluorescence intensity, and A is the absorbance at a chosen wavelength. The estimated error for this method is ±15%.

[2] = cited from earlier work
[3] = molecular target: bovine serum albumin (BSA) (Bos taurus, UniProt P02769); assay: Bovine serum albumin (BSA) binding by tryptophan fluorescence quenching titration; conditions: pH 7.4 PBS buffer, 37° C.; for Association constant Ka, titration isotherm fitted to 1:1 model: N=3
Experimental: The titration experiments measured quenching of bovine serum albumin (BSA, 1 mL of 2 μM solution in pH 7.4 PBS buffer) tryptophan fluorescence at 37° C. as dye was added incrementally. A fluorescence spectrum (ex: 280 nm, slit width: 2 nm) was acquired after each dye aliquot was added (2 μL of 1 mM dye stock solutions in water). After each aliquot addition, the solution was mixed and allowed to equilibrate at 37° C. for 5 min before spectral acquisition. Association constants were determined by plotting the change in fluorescence intensity at 345 nm verses molar equivalents using 1:1 binding stoichiometry on the BindFit software. Experiments were done in triplicates. Equations for determining association and dissociation constant are shown below:
[formula] [formula] where F is the fluorescence intensity of tryptophan after adding certain amount of dye, k is the proportionality constant for BSA tryptophan under the experimental condition, Ka is the association constant, [BSA]

[4] = Stability of 1.0 mM aqueous solutions stored at 4° C. in the dark (1H NMR); type: physicochemical; conditions: for Purity of aqueous solution: 1.0 mM
Experimental: After 7 days and 28 days (separate samples), 1 mL aliquots were taken from each stock solution, the solutions were lyophilized, the solid residue was dissolved in methanol-d4 and ^1H NMR spectra were acquired.
After 7 days and 28 days (separate samples), 1 mL aliquots were taken from each stock solution, the solutions were lyophilized, the solid residue dissolved in methanol-d4 and ^1H NMR spectra were acquired.

[5] = Stability of 1.0 mM aqueous stock solutions at room temperature under low photon intensity storage (1H NMR, reverse phase TLC); conditions: for Stability of stored stock solution, ICG versus ICG-d5 (degradation to oxidative dimer): one week; for Stability of stored stock solution, ICG versus ICG-d5 (degradation to oxidative dimer) / Conversion to oxidative dimer: reverse phase TLC; for Conversion to oxidative dimer: 3-day old 1.0 mM stock solution, primarily in the dark at room temperature
Experimental: Every day, a 50 μL aliquot was removed from each stock solution, lyophilized, and stored as a solid at −20° C.
At each time point, a 1.0 mL aliquot was taken from the stock solution, the aliquot was lyophilized, the solid residue was dissolved in 0.60 mL of methanol-d4, and a ^1H NMR spectrum was acquired.
The solutions were stored at room temperature and low photon intensity conditions (only exposed to lab lights during sample preparation and when aliquots were removed from samples). After 72 h and 120 h, 1 mL aliquots were taken from each stock solution and lyophilized. In each case, the solid residue was dissolved in 0.6 mL of methanol-d4 and a ^1H NMR spectrum was recorded.
The second set of dye stability experiments were designed to mimic the low photon intensity storage conditions experienced by a typical reconstituted dose in water before it is administered in a clinical setting. Thus, stock solutions of the dyes were exposed to the atmosphere and laboratory lights during the initial reconstitution and periodic sampling, but otherwise stored as capped vials in the dark at room temperature.

[6] = 20 μg/mL solution in water, 24 hours; cited from earlier work
[7] = Photobleaching under high intensity irradiation (150 W Xenon lamp, 620 nm long-pass filter); conditions: 6 h irradiation, 1.0 mM or 0.05 mM in water or ethanol, TLC
[8] = 1.0 mM in water, room temperature, low photon intensity, storage 72 h, 1H NMR
[9] = 1.0 mM in water, room temperature, low photon intensity, storage 120 h, 1H NMR
[10] = 1.0 mM in water, room temperature

Chain of bovine serum albumin (BSA) (P02769 25-607): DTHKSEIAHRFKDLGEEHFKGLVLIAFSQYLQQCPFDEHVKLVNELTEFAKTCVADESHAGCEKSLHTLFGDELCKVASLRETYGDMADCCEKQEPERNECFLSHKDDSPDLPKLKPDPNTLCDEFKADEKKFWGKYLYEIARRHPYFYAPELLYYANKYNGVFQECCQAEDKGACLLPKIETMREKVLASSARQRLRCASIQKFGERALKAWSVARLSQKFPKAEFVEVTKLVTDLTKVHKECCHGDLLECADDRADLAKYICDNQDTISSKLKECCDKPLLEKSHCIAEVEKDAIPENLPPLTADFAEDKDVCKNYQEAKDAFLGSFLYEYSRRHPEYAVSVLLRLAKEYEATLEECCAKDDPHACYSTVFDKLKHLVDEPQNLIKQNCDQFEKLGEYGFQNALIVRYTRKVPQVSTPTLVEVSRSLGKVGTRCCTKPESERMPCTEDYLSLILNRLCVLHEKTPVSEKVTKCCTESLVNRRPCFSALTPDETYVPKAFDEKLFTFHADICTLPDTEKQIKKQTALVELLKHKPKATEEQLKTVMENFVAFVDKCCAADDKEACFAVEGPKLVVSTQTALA

SMILES: CC1(C)C(/C=C/C=C/C=C/C=C2/N(CCCCS(=O)(=O)[O-])c3ccc4ccccc4c3C2(C)C)=[N+](CCCCS(=O)(=O)[O-])c2ccc3ccccc3c21.[Na+] [ICG, Indocyanine Green, reference compound]
- λ abs max ([1]; DMSO): 795 nm
- λ em max ([1]; DMSO): 820 nm
- ε ([1]; DMSO): 224,000 M^−1cm^−1
- ΦF (fluorescence quantum yield) ([1]; DMSO): 16.7 ± 0.6%
- Brightness ([1]; DMSO): 37,000
- λ abs max ([1]; FBS): 800 nm
- λ em max ([1]; FBS): 813 nm
- ε ([1]; FBS): 197,000 M^−1cm^−1
- ΦF (fluorescence quantum yield) ([1]; FBS): 9.7 ± 0.4%
- Brightness ([1]; FBS): 19,000
- Water solubility [2]: 1000 µg/mL
- Association constant Ka, titration isotherm fitted to 1:1 model [3]: (3.4±0.5)×10^5 M^−1
- Purity of aqueous solution ([4]; 7 days storage): 85%
- Purity of aqueous solution ([4]; 28 days storage): 52%
- Effect of H2O2 on formation of oxidative dimer 1 ([5]; 1.0 mM in water, 5 h, H2O2 10 molar equivalents, TLC): higher amount of oxidative dimer 1
- Effect of air and light exposure on formation of oxidative dimer 1 ([5]; 1.0 mM in water, 30 h, room temperature, TLC and NMR): inhibits formation of oxidative dimer 1
- Effect of additives on dimerization to oxidative dimer 1 ([5]; 1 mM in water, additives 10 molar equivalents, 24 h, room temperature, low photon intensity, TLC): promoted by the presence of NaI; also recorded: stopped by base (NaHCO3 and NaOAc), singlet oxygen quencher (NaN3) and reductant (Na2SO3 and Na ascorbate)
- Weight percentage remaining in aqueous stock solution [5, 8]: 73.6 ± 1.7 wt %
- Weight percentage remaining in aqueous stock solution [5, 9]: 67.4 ± 1.0 wt %
- Stability of stored stock solution, ICG versus ICG-d5 (degradation to oxidative dimer) [5, 10]: more degradation
- Dimerization in water versus ethanol ([5]; 1.0 mM, 48 h, room temperature, low photon intensity, TLC): favored in water
- Conversion to oxidative dimer [5]: ~20%
- Degradation to oxidative dimer 1 versus concentration ([5]; water, different concentrations, 72 h, room temperature, low photon intensity, 1H NMR): slower at higher concentrations
- ICG remaining [6]: 20%
- Photostability versus concentration and solvent [7]: 1.0 mM ICG solution in water is more photostable than a 0.05 mM ICG solution in water

SMILES: [2H]C(=C\C1=[N+](CCCCS(=O)(=O)[O-])c2ccc3ccccc3c2C1(C)C)/C([2H])=C([2H])/C([2H])=C([2H])/C=C1/N(CCCCS(=O)(=O)[O-])c2ccc3ccccc3c2C1(C)C.[Na+] [ICG-d5, Indocyanine Green-d5]
- λ abs max ([1]; DMSO): 793 nm
- λ em max ([1]; DMSO): 819 nm
- ε ([1]; DMSO): 253,000 M^−1cm^−1
- ΦF (fluorescence quantum yield) ([1]; DMSO): 19.8 ± 0.5%
- Brightness ([1]; DMSO): 49,000
- λ abs max ([1]; FBS): 796 nm
- λ em max ([1]; FBS): 813 nm
- ε ([1]; FBS): 205,000 M^−1cm^−1
- ΦF (fluorescence quantum yield) ([1]; FBS): 10.5 ± 0.3%
- Brightness ([1]; FBS): 21,000
- Association constant Ka, titration isotherm fitted to 1:1 model [3]: (3.8±0.6)×10^5 M^−1
- Purity of aqueous solution ([4]; 7 days storage): 99%
- Purity of aqueous solution ([4]; 28 days storage): 85%
- Stability of stock solution in a refrigerator ([4]; 7 and 28 days): increased stability in a refrigerator
- Weight percentage remaining in aqueous stock solution [5, 8]: 86.0 ± 0.8 wt %
- Weight percentage remaining in aqueous stock solution [5, 9]: 80.9 ± 1.2 wt %
- Stability of stored stock solution, ICG versus ICG-d5 (degradation to oxidative dimer) [5, 10]: substantially more stable
- Conversion to oxidative dimer [5]: ~2%

- Kd ([3]; fluorescence titration, 2 μM BSA, read-out: Dissociation constant (Kd) of BSA binding): 34 µM
SMILES: CC1(C)C(=CC=CC=C(C=CC2=[N+](CCCCS(=O)(=O)[O-])c3ccc4ccccc4c3C2(C)C)C(C=CC2=[N+](CCCCS(=O)(=O)[O-])c3ccc4ccccc4c3C2(C)C)=CC=CC=C2N(CCCCS(=O)(=O)O)c3ccc4ccccc4c3C2(C)C)N(CCCCS(=O)(=O)O)c2ccc3ccccc3c21 [compound 1]
